Measured values as given in paper PMC5983563, “Defining ICR-Mo, an intrinsic colistin resistance determinant from Moraxella osloensis” (PLoS Genetics, 2018).

Key:
ICR-Mo (AXE82_07515) = molecular target: T1, ICR-Mo (AXE82_07515) (Faucicola osloensis, UniProt A0A378QCY4); test: TLC of fluorescent lipid, LC/MS; assay type: biochemical; conditions: pH 7.5, 25°C, ~24 h, 0.2 mM substrate, 40 μM enzyme, 0.03% DDM
T1 construct: gene eptA; full-length synthetic gene in pET21a, membrane protein, Ni-NTA purified in DDM, ~60 kDa

EptA = molecular target: T2, EptA (Neisseria gonorrhoeae, UniProt B4RMY8); test: TLC of fluorescent lipid; assay type: biochemical; conditions: pH 7.5, 25°C, ~24 h, 0.2 mM substrate, 40 μM enzyme, 0.03% DDM
T2 construct: gene NGK_1498; full-length membrane protein, purified in DDM
T2 sequence (B4RMY8 entry or part of it): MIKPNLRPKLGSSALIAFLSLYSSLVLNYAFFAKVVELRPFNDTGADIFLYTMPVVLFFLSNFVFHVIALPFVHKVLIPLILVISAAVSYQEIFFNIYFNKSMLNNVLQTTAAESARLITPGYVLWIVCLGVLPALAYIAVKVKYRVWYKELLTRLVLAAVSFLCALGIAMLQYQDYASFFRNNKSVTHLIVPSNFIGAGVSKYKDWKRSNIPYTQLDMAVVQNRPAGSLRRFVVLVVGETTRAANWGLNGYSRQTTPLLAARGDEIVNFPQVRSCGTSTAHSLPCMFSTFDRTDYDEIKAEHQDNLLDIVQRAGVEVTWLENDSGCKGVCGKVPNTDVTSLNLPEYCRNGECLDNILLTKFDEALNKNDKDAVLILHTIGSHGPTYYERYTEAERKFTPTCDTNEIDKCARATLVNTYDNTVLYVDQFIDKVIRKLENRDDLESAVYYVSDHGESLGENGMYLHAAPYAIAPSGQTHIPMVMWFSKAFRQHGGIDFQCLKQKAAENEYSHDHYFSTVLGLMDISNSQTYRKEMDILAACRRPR

T1 sequence (A0A378QCY4 entry or part of it): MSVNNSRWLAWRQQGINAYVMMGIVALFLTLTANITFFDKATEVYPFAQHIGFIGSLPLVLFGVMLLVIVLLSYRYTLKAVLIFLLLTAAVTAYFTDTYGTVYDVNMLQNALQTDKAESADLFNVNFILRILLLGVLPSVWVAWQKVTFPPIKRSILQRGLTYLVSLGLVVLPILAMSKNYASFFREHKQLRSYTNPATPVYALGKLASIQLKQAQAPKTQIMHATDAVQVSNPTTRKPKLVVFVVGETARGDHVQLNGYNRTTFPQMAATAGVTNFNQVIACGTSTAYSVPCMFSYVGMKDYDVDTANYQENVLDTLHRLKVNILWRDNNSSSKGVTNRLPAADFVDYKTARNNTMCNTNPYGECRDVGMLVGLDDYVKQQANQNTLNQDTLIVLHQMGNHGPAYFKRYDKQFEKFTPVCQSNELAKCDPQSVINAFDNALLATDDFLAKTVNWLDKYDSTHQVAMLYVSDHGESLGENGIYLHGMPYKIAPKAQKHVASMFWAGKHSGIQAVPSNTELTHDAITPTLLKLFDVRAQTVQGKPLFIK

CCCCCCCCCCCCCCCC(=O)OC[C@H](COP(=O)(O)OCCN)OC(=O)CCCCCCCCCCCNc1ccc([N+](=O)[O-])c2nonc12 [NBD-glycerol-3-PEA, 1-acyl-2-{12-[(7-nitro-2-1,3-benzoxadiazol-4-yl)amino]dodecanoyl}-sn-glycero-3-phosphoethanolamine]
TLC of fluorescent lipid, LC/MS (ICR-Mo (AXE82_07515)): ICR-Mo displays an enzymatic activity of removing the PEA moiety from the lipid substrate | TLC of fluorescent lipid (EptA): Minus denotes no addition of the enzyme of EptA/MCR-1/MCR-2/ICR-Mo
